Laboratory results taken from patent publication US12065445B2, “CDK2 inhibitors and methods of using the same” (Cedilla Therapeutics, Inc., priority 2021, dated 2024).

The compounds below were run on Kuramochi cells (assay: BrdU Cell Proliferation Assay). Conditions: read-out: BrdU - KURAMOCHI.1: IC50.
Assay type: cell-based
Outline: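 Signal is 450 nm absorbance from a peroxidase anti-BrdU ELISA after a 1-hour BrdU label, background-subtracted and normalized to DMSO-treated wells. Kuramochi cells (2,000 per well) had been exposed to compound for 4 days. Dosing used a 10-point dose response in 3-fold steps.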
Compound CNC(=O)[C@@H](NC(=O)[C@H]1CN(C(=O)c2cnn(Cc3ccccc3)c2)CC12CN(C(=O)C1(c3ccc(C(C)(C)C)cc3)CC1)C2)[C@@H](C)OCc1ccccc1 [I-80B] has an IC50 of over 10 µM.
CC1(C)C[C@@H]1C(=O)N1CC2(CN(C(=O)c3cnn(Cc4ccccc4)c3)C[C@@H]2C(=O)Nc2ccc(-c3ccccc3)cc2)C1 [I-81B] showed an IC50 of 5 to 10 µM.
CNC(=O)[C@@H](NC(=O)[C@@H]1CN(C(=O)c2cnn(Cc3ccccc3)c2)CC12CN(C(=O)CC1(COC)CC1)C2)[C@@H](C)OCc1ccccc1 [I-82A] was tested, and the IC50 was over 10 µM.
With CNC(=O)[C@@H](NC(=O)[C@H]1CN(C(=O)c2cnn(Cc3ccccc3)c2)CC12CN(C(=O)CC1(COC)CC1)C2)[C@@H](C)OCc1ccccc1 [I-82B] the IC50 was over 10 µM.
With CC1(C)C[C@@H]1C(=O)N1CC2(CN(C(=O)c3cnn(Cc4ccccc4)c3)C[C@H]2C(=O)N[C@H]2CCCN(C(=O)c3ccccc3)C2)C1 [I-83A] the IC50 was over 10 µM.
CC1(C)C[C@@H]1C(=O)N1CC2(CN(C(=O)c3cnn(Cc4ccccc4)c3)C[C@@H]2C(=O)N[C@H]2CCCN(C(=O)c3ccccc3)C2)C1 [I-83B] gave an IC50 of over 10 µM.
With CC1(C)C[C@@H]1C(=O)N1CC2(CN(C(=O)c3cnn(Cc4ccccc4)c3)C[C@@H]2C(=O)Nc2ccc(Cc3ccccc3)cc2)C1 [I-84B] the IC50 was 5 to 10 µM.
C[C@@H](OCc1ccccc1)[C@H](NC(=O)C1CN(C(=O)c2cnn(Cc3ccccc3)c2)CC12CN(C(=O)[C@H]1CC1(C)C)C2)C(=O)N1CCC(F)(F)CC1 (stereo partly drawn) [I-85] gave an IC50 of 0.5 to 5 µM.
For C[C@@H](OCc1ccccc1)[C@H](NC(=O)C1CN(C(=O)c2cnn(Cc3ccccc3)c2)CC12CN(C(=O)[C@H]1CC1(C)C)C2)C(=O)N1CCOCC1 (stereo partly drawn) [I-86], the IC50 was over 10 µM.
Compound CNC(=O)[C@@H](NC(=O)[C@@H]1CN(C(=O)c2cnn(Cc3ccccc3)c2)CC12CN(C(=O)CC(F)(F)F)C2)[C@@H](C)OCc1ccccc1 [I-87A] has an IC50 of over 10 µM.
With CNC(=O)[C@@H](NC(=O)[C@H]1CN(C(=O)c2cnn(Cc3ccccc3)c2)CC12CN(C(=O)CC(F)(F)F)C2)[C@@H](C)OCc1ccccc1 [I-87B] the IC50 was over 10 µM.
For CNC(=O)[C@@H](NC(=O)[C@@H]1CN(C(=O)c2cnn(Cc3ccccc3)c2)CC12CN(C(=O)[C@H]1CC1(C)C)C2)[C@@H](C)O [I-88A, (S)-6-(1-benzyl-1H-pyrazole-4-carbonyl)-2-((S)-2,2-dimethylcyclopropane-1-carbonyl)-N-((2S,3R)-3-hydroxy-1-(methylamino)-1-oxobutan-2-yl)-2,6-diazaspiro[3.4]octane-8-carboxamide], the IC50 was over 10 µM.
For CNC(=O)[C@@H](NC(=O)[C@H]1CN(C(=O)c2cnn(Cc3ccccc3)c2)CC12CN(C(=O)C1CC1(C)C)C2)[C@@H](C)O (stereo partly drawn) [I-88B], the IC50 was over 10 µM.
CNC(=O)[C@@H](NC(=O)[C@@H]1CN(C(=O)c2cnn(Cc3ccccc3)c2)CC12CN(C(=O)C1C(C)(C)C1(C)C)C2)[C@@H](C)OCc1ccccc1 [I-89A] showed an IC50 of over 10 µM.
CNC(=O)[C@@H](NC(=O)[C@H]1CN(C(=O)c2cnn(Cc3ccccc3)c2)CC12CN(C(=O)C1C(C)(C)C1(C)C)C2)[C@@H](C)OCc1ccccc1 [I-89B] showed an IC50 of over 10 µM.
CNC(=O)[C@@H](NC(=O)[C@@H]1CN(C(=O)c2cnn(Cc3ccccc3)c2)CC12CN(C(=O)C(C)(C)F)C2)[C@@H](C)OCc1ccccc1 [I-90A] gave an IC50 of over 10 µM.
CNC(=O)[C@@H](NC(=O)[C@H]1CN(C(=O)c2cnn(Cc3ccccc3)c2)CC12CN(C(=O)C(C)(C)F)C2)[C@@H](C)OCc1ccccc1 [I-90B] was tested, and the IC50 was over 10 µM.
In the case of CC1(C)C[C@@H]1C(=O)N1CC2(CN(C(=O)c3cnn(Cc4ccccc4)c3)C[C@H]2C(=O)N2CCCC(Cc3ccccc3)C2)C1 (stereo partly drawn) [I-91A], the IC50 is reported as over 10 µM.
In the case of CC1(C)C[C@@H]1C(=O)N1CC2(CN(C(=O)c3cnn(Cc4ccccc4)c3)C[C@@H]2C(=O)N2CCCC(Cc3ccccc3)C2)C1 (stereo partly drawn) [I-91B], the IC50 is reported as over 10 µM.
In the case of CNC(=O)[C@@H](NC(=O)[C@@H]1CN(C(=O)c2cnn(Cc3ccccc3)c2)CC12CN(C(=O)CC1(CO)CC1)C2)[C@@H](C)OCc1ccccc1 [I-92A], the IC50 is reported as over 10 µM.
Work on CNC(=O)[C@@H](NC(=O)[C@H]1CN(C(=O)c2cnn(Cc3ccccc3)c2)CC12CN(C(=O)CC1(CO)CC1)C2)[C@@H](C)OCc1ccccc1 [I-92B] yielded an IC50 of over 10 µM.
Work on CC1(C)C[C@@H]1C(=O)N1CC2(CN(C(=O)c3cnn(Cc4ccccc4)c3)CC2C(=O)Nc2ncc(-c3ccccc3)o2)C1 (stereo partly drawn) [I-93] yielded an IC50 of over 10 µM.
With CCCCC1CC1C(=O)N1CC2(CN(C(=O)c3cnn(Cc4ccccc4)c3)C[C@H]2C(=O)N[C@H](C(=O)NC)[C@@H](C)OCc2ccccc2)C1 (stereo partly drawn) [I-94A] the IC50 was over 10 µM.
Compound CCCCC1CC1C(=O)N1CC2(CN(C(=O)c3cnn(Cc4ccccc4)c3)C[C@@H]2C(=O)N[C@H](C(=O)NC)[C@@H](C)OCc2ccccc2)C1 (stereo partly drawn) [I-94B] has an IC50 of over 10 µM.
With CNC(=O)[C@@H](NC(=O)[C@@H]1CN(C(=O)c2cnn(CC3CCOCC3)c2)CC12CN(C(=O)[C@H]1CC1(C)C)C2)[C@@H](C)OCc1ccccc1 [I-95A] the IC50 was over 10 µM.
Work on CNC(=O)[C@@H](NC(=O)[C@H]1CN(C(=O)c2cnn(CC3CCOCC3)c2)CC12CN(C(=O)[C@H]1CC1(C)C)C2)[C@@H](C)OCc1ccccc1 [I-95B] yielded an IC50 of over 10 µM.
With CC1(C)C[C@@H]1C(=O)N1CC2(CN(C(=O)c3cnn(Cc4ccccc4)c3)C[C@H]2C(=O)NCCOCc2ccccc2)C1 [I-96A] the IC50 was over 10 µM.
Compound CC1(C)C[C@@H]1C(=O)N1CC2(CN(C(=O)c3cnn(Cc4ccccc4)c3)C[C@@H]2C(=O)NCCOCc2ccccc2)C1 [I-96B] has an IC50 of over 10 µM.
C[C@@H](OCc1ccccc1)[C@H](NC(=O)C1CN(C(=O)c2cnn(Cc3ccccc3)c2)CC12CN(C(=O)[C@H]1CC1(C)C)C2)C(=O)N1CCCC(CO)C1 (stereo partly drawn) [I-98] was tested, and the IC50 was over 10 µM.
CNC(=O)[C@H](COCc1ccccc1)NC(=O)[C@@H]1CN(C(=O)c2cnn(Cc3ccccc3)c2)CC12CN(C(=O)C(C)(C)C)C2 [I-100A] showed an IC50 of over 10 µM.
CNC(=O)[C@H](COCc1ccccc1)NC(=O)[C@H]1CN(C(=O)c2cnn(Cc3ccccc3)c2)CC12CN(C(=O)C(C)(C)C)C2 [I-100B] gave an IC50 of over 10 µM.
In the case of CNC(=O)[C@H](CCCc1ccccc1)NC(=O)[C@@H]1CN(C(=O)c2cnn(Cc3ccccc3)c2)CC12CN(C(=O)[C@H]1CC1(C)C)C2 [I-101A], the IC50 is reported as over 10 µM.
For CNC(=O)[C@H](CCCc1ccccc1)NC(=O)[C@H]1CN(C(=O)c2cnn(Cc3ccccc3)c2)CC12CN(C(=O)[C@H]1CC1(C)C)C2 [I-101B], the IC50 was over 10 µM.
Compound CNC(=O)[C@@H](NC(=O)[C@@H]1CN(C(=O)c2cnn(Cc3ccccc3)c2)CC12CN(C(=O)C1(CCOC)CC1)C2)[C@@H](C)OCc1ccccc1 [I-102A] has an IC50 of over 10 µM.
For CNC(=O)[C@@H](NC(=O)[C@H]1CN(C(=O)c2cnn(Cc3ccccc3)c2)CC12CN(C(=O)C1(CCOC)CC1)C2)[C@@H](C)OCc1ccccc1 [I-102B], the IC50 was over 10 µM.
CNC(=O)[C@@H](NC(=O)[C@@H]1CN(C(=O)c2cncs2)CC12CN(C(=O)CC1CC1)C2)[C@@H](C)OCC1CCCCC1 [I-103A] gave an IC50 of over 10 µM.
CNC(=O)[C@@H](NC(=O)[C@H]1CN(C(=O)c2cncs2)CC12CN(C(=O)CC1CC1)C2)[C@@H](C)OCC1CCCCC1 [I-103B] showed an IC50 of over 10 µM.
C[C@@H](OCc1ccccc1)[C@H](NC(=O)C1CN(C(=O)c2cnn(Cc3ccccc3)c2)CC12CN(C(=O)[C@H]1CC1(C)C)C2)C(=O)N1CC2(CCC2)C1 (stereo partly drawn) [I-106] was tested, and the IC50 was 0.5 to 5 µM.
Compound CNC(=O)[C@@H](NC(=O)[C@@H]1CN(C(=O)c2cnn(Cc3ccccc3)c2)CC12CN(C(=O)C1(C(F)(F)F)CC1)C2)[C@@H](C)OCc1ccccc1 [I-108A] has an IC50 of over 10 µM.
